According to the supplement of paper PMC10307832:

Key:
Assay in all cases: relative viability (nuclei count vs DMSO), 5 days (fraction); higher = more cells survive
Selumetinib + Olaparib = compound: Cn1cnc2c(F)c(Nc3ccc(Br)cc3Cl)c(C(=O)NOCCO)cc21 [Selumetinib] + O=C(c1cc(Cc2n[nH]c(=O)c3ccccc23)ccc1F)N1CCN(C(=O)C2CC2)CC1 [Olaparib] (partner 8 µM)
Procedure, shortened: (§1)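 The day after seeding in 1536-well plates, lung cancer cell lines were treated by pin tool with a single drug, or with a fixed anchor-drug dose together with five library-drug doses (not always all listed) in √10 steps. After 5 days, a combined fix-and-stain solution (final 0.05% Triton X-100, 1% formaldehyde, 1 ug/ml Hoechst) was added. Nuclei counted on 4× images gave relative viability as treated counts over vehicle counts, reported as the median of duplicate plates.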

Selumetinib + Pictilisib = compound: Cn1cnc2c(F)c(Nc3ccc(Br)cc3Cl)c(C(=O)NOCCO)cc21 [Selumetinib] + CS(=O)(=O)N1CCN(Cc2cc3nc(-c4cccc5[nH]ncc45)nc(N4CCOCC4)c3s2)CC1 [Pictilisib] (partner 1 µM)
Procedure, shortened: as §1

Venetoclax + Trametinib = compound: CC1(C)CCC(CN2CCN(c3ccc(C(=O)NS(=O)(=O)c4ccc(NCC5CCOCC5)c([N+](=O)[O-])c4)c(Oc4cnc5[nH]ccc5c4)c3)CC2)=C(c2ccc(Cl)cc2)C1 [Venetoclax] + CC(=O)Nc1cccc(-n2c(=O)n(C3CC3)c(=O)c3c(Nc4ccc(I)cc4F)n(C)c(=O)c(C)c32)c1 [Trametinib] (partner 0.02 µM)
Procedure, shortened: as §1

Venetoclax + Luminespib = compound: CC1(C)CCC(CN2CCN(c3ccc(C(=O)NS(=O)(=O)c4ccc(NCC5CCOCC5)c([N+](=O)[O-])c4)c(Oc4cnc5[nH]ccc5c4)c3)CC2)=C(c2ccc(Cl)cc2)C1 [Venetoclax] + CCNC(=O)c1noc(-c2cc(C(C)C)c(O)cc2O)c1-c1ccc(CN2CCOCC2)cc1 [Luminespib] (partner 0.01 µM)
Procedure, shortened: as §1

Row | Cell Line | relative viability (Selumetinib + Olaparib; first compound 0.02 µM) | relative viability (Selumetinib + Olaparib; first compound 0.06325 µM) | relative viability (Selumetinib + Olaparib; first compound 0.2 µM) | relative viability (Selumetinib + Olaparib; first compound 0.6325 µM) | relative viability (Selumetinib + Pictilisib; first compound 0.02 µM) | relative viability (Selumetinib + Pictilisib; first compound 0.06325 µM) | relative viability (Selumetinib + Pictilisib; first compound 0.2 µM) | relative viability (Selumetinib + Pictilisib; first compound 0.6325 µM) | relative viability (Venetoclax + Trametinib; first compound 0.01 µM) | relative viability (Venetoclax + Trametinib; first compound 0.03162 µM) | relative viability (Venetoclax + Trametinib; first compound 0.1 µM) | relative viability (Venetoclax + Trametinib; first compound 0.3162 µM) | relative viability (Venetoclax + Trametinib; first compound 1 µM) | relative viability (Venetoclax + Luminespib; first compound 0.01 µM) | relative viability (Venetoclax + Luminespib; first compound 0.03162 µM) | relative viability (Venetoclax + Luminespib; first compound 0.1 µM) | relative viability (Venetoclax + Luminespib; first compound 0.3162 µM) | relative viability (Venetoclax + Luminespib; first compound 1 µM)
1 | NCI-H1792 | 0.256 | 0.353 | 0.439 | 0.235 | 0.238 | 0.197 | 0.196 | 0.144 | 0.456 | 0.405 | 0.485 | 0.498 | 0.439 | 0.381 | 0.492 | 0.329 | 0.374 | 0.375
2 | NCI-H1793 | 0.765 | 0.531 | 0.421 | 0.39 | 0.288 | 0.286 | 0.314 | 0.28 | 0.334 | 0.46 | 0.367 | 0.335 | 0.419 | 0.152 | 0.194 | 0.164 | 0.19 | 0.162
3 | NCI-H1915 | 0.259 | 0.248 | 0.214 | 0.192 | 0.889 | 0.716 | 0.454 | 0.448 | 0.253 | 0.319 | 0.295 | 0.318 | 0.299 | 0.745 | 0.808 | 0.708 | 0.699 | 0.695
4 | NCI-H1944 | 0.394 | 0.386 | 0.359 | 0.318 | 0.338 | 0.337 | 0.275 | 0.319 | 0.511 | 0.474 | 0.394 | 0.432 | 0.361 | 0.992 | 0.787 | 0.775 | 0.879 | 0.696
5 | NCI-H1975 | 0.799 | 0.88 | 0.658 | 0.582 | 0.259 | 0.242 | 0.211 | 0.204 | 0.256 | 0.388 | 0.319 | 0.347 | 0.3 | 0.241 | 0.212 | 0.191 | 0.172 | 0.251
6 | NCI-H1993 | 1.16 | 0.808 | 0.876 | 0.795 | 0.945 | 0.815 | 0.866 | 0.807 | 0.509 | 0.518 | 0.506 | 0.591 | 0.535 | 0.881 | 0.843 | 0.917 | 0.896 | 0.777
7 | NCI-H2009 | 0.775 | 0.6 | 0.608 | 0.316 | 0.614 | 0.355 | 0.266 | 0.221 | 0.346 | 0.351 | 0.292 | 0.266 | 0.264 | 0.987 | 1.08 | 0.937 | 1 | 0.92
8 | NCI-H2023 | 0.555 | 0.467 | 0.454 | 0.487 | 0.211 | 0.186 | 0.198 | 0.223 | 0.526 | 0.552 | 0.558 | 0.485 | 0.477 | 0.744 | 0.911 | 0.859 | 0.784 | 0.676
9 | NCI-H2085 | 0.704 | 0.771 | 0.689 | 0.671 | 0.449 | 0.374 | 0.356 | 0.365 | 0.45 | 0.56 | 0.416 | 0.547 | 0.511 | 0.339 | 0.427 | 0.437 | 0.37 | 0.438
10 | NCI-H2087 | 0.527 | 0.38 | 0.322 | 0.243 | 0.552 | 0.405 | 0.329 | 0.267 | 0.197 | 0.181 | 0.178 | 0.199 | 0.257 | 0.154 | 0.138 | 0.175 | 0.18 | 0.135
11 | NCI-H2126 | 0.893 | 0.833 | 0.813 | 0.742 | 0.477 | 0.434 | 0.408 | 0.416 | 0.544 | 0.618 | 0.538 | 0.566 | 0.521 | 0.866 | 0.95 | 0.991 | 0.961 | 0.87
12 | NCI-H2170 | 0.62 | 0.594 | 0.649 | 0.568 | 0.27 | 0.306 | 0.276 | 0.249 | 0.859 | 0.97 | 0.841 | 0.812 | 0.87 | 0.589 | 0.427 | 0.766 | 0.737 | 0.689
13 | NCI-H2228 | 0.754 | 0.69 | 0.685 | 0.608 | 0.247 | 0.283 | 0.354 | 0.314 | 0.715 | 0.608 | 0.567 | 0.453 | 0.464 | 0.162 | 0.158 | 0.15 | 0.128 | 0.147
14 | NCI-H2347 | 0.386 | 0.467 | 0.403 | 0.355 | 0.641 | 0.314 | 0.239 | 0.258 | 0.327 | 0.288 | 0.254 | 0.298 | 0.267 | 0.307 | 0.702 | 0.405 | 0.283 | 0.948
15 | NCI-H2405 | 0.85 | 0.762 | 0.844 | 0.581 | 0.382 | 0.303 | 0.269 | 0.26 | 0.769 | 0.603 | 0.584 | 0.646 | 0.591 | 0.747 | 0.754 | 0.85 | 0.712 | 0.639
16 | NCI-H3122 | 0.609 | 0.571 | 0.563 | 0.565 | 0.396 | 0.298 | 0.206 | 0.211 | 0.259 | 0.197 | 0.211 | 0.227 | 0.29 | 0.0697 | 0.0939 | 0.105 | 0.0864 | 0.101
17 | PC-3 [JPC-3] | 1.03 | 1.07 | 0.992 | 0.854 | 0.711 | 0.718 | 0.456 | 0.503 | 0.656 | 0.685 | 0.678 | 0.683 | 0.666 | 0.673 | 0.661 | 0.667 | 0.688 | 0.668
